Key:
[1] = test system: chickweed; experiment: Test D preemergence; type: in vivo, Stellaria media; conditions: Stellaria media, pre-emergence, scale 0-100, read-out: Plant response rating, Chickweed
In short: (§1)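 In a controlled growth environment, treated and control plants were held 7 to 21 days, then compared visually. Damage was scored 0–100, where 100 means complete control. Sprays contained surfactant in a non-phytotoxic solvent; post-applied plants were at the 1- to 4-leaf stage.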

[2] = test system: galium; experiment: Test D preemergence; type: in vivo, Galium aparine; conditions: Galium, pre-emergence, scale 0-100, read-out: Plant response rating, Galium
In short: as §1

[3] = test system: green foxtail; experiment: Test D preemergence; type: in vivo, Setaria viridis; conditions: Setaria viridis, pre-emergence, scale 0-100, read-out: Plant response rating, Foxtail, Green
In short: as §1

[4] = test system: kochia; experiment: Test D preemergence; type: in vivo, Kochia scoparia; conditions: Bassia scoparia, pre-emergence, scale 0-100, read-out: Plant response rating, Kochia
In short: as §1

[5] = test system: galium; experiment: Test D postemergence; type: in vivo, Galium aparine; conditions: Galium, post-emergence, scale 0 to 100 (0 no effect, 100 complete control), read-out: Plant response rating, Galium
In short: as §1

[6] = test system: Italian ryegrass; experiment: Test D postemergence; type: in vivo, Lolium multiflorum; conditions: Lolium multiflorum, post-emergence, scale 0 to 100 (0 no effect, 100 complete control), read-out: Plant response rating, Ryegrass, Italian
In short: as §1

[7] = test system: lambsquarters; experiment: Test D postemergence; type: in vivo, Chenopodium album; conditions: Chenopodium album, post-emergence, scale 0 to 100 (0 no effect, 100 complete control), read-out: Plant response rating, Lambsquarters
In short: as §1

[8] = test system: waterhemp_RES2 (ALS & HPPD resistant common waterhemp); experiment: Test E postemergence; type: in vivo, Amaranthus rudis; conditions: Amaranthus tuberculatus, post-emergence, read-out: Plant response rating, Waterhemp_RES2
In short: (§2)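 Test chemicals formulated in a non-phytotoxic solvent mixture containing a surfactant were applied preemergence to seeds in silt loam soil or postemergence to plants at the 1- to 4-leaf stage in potting mix. After 14 to 21 days in a greenhouse, injury was visually rated against controls on a 0-100 scale (0 = no effect, 100 = complete control).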

[9] = test system: waterhemp; experiment: Test E postemergence; type: in vivo, Amaranthus rudis; conditions: Amaranthus tuberculatus, post-emergence, read-out: Plant response rating, Waterhemp
In short: as §2

[10] = test system: fall panicum; experiment: Test E postemergence; type: in vivo, Panicum dichotomiflorum; conditions: Panicum dichotomiflorum, post-emergence, read-out: Plant response rating, Panicum, Fall
In short: as §2

[11] = test system: barnyardgrass; experiment: Test E postemergence; type: in vivo, Echinochloa crus-galli; conditions: Echinochloa crus-galli, post-emergence, read-out: Plant response rating, Barnyardgrass
In short: as §2

[12] = test system: dayflower; experiment: Test E postemergence; type: in vivo, Commelina virginica; conditions: Commelina virginica, post-emergence, read-out: Plant response rating, Dayflower, VA
In short: as §2

[13] = test system: hairy beggarticks; experiment: Test E postemergence; type: in vivo, Bidens pilosa; conditions: Bidens pilosa, post-emergence, read-out: Plant response rating, Beggarticks
In short: as §2

[14] = Postemergence, 31 g ai/ha, scale 0 to 100
[15] = Postemergence, 62 g ai/ha, scale 0 to 100
[16] = Postemergence, 125 g ai/ha, scale 0 to 100
[17] = Postemergence, 250 g ai/ha, scale 0 to 100
[18] = postemergence, 16 g ai/ha, scale 0 to 100, 0 no effect, 100 complete control

N#Cc1cccc(Oc2ncc(Cl)cn2)c1-n1cc(C(F)(F)F)cn1 [Compound 58, 3-[(5-chloro-2-pyrimidinyl)oxy]-2-[4-(trifluoromethyl)-1H-pyrazol-1-yl]benzonitrile]
90%: pest or weed control at 62 g/ha ([7]; 62 g ai/ha) | pest or weed control at 250 g/ha ([7]; 250 g ai/ha) | pest or weed control at 31 g/ha [8, 14] | pest or weed control at 62 g/ha [8, 15] | pest or weed control at 125 g/ha [12, 16] | pest or weed control at 125 g/ha [13, 16]
0%: pest or weed control at 16 g/ha [11, 18]
70%: pest or weed control at 31 g/ha ([5]; 31 g ai/ha) | pest or weed control at 250 g/ha [11, 17]
5%: pest or weed control at 31 g/ha [11, 14]
60%: pest or weed control at 125 g/ha [10, 16] | pest or weed control at 250 g/ha [10, 17] | pest or weed control at 31 g/ha [12, 14] | pest or weed control at 16 g/ha [13, 18]
65%: pest or weed control at 31 g/ha ([2]; 31 g ai/ha) | pest or weed control at 250 g/ha ([6]; 250 g ai/ha) | pest or weed control at 31 g/ha [13, 14]
80%: pest or weed control at 16 g/ha [8, 18] | pest or weed control at 62 g/ha [13, 15]
75%: pest or weed control at 31 g/ha ([7]; 31 g ai/ha) | pest or weed control at 16 g/ha [9, 18] | pest or weed control at 62 g/ha [12, 15]
20%: pest or weed control at 62 g/ha ([6]; 62 g ai/ha) | pest or weed control at 16 g/ha [10, 18] | pest or weed control at 62 g/ha [11, 15]
85%: pest or weed control at 31 g/ha [9, 14]
40%: pest or weed control at 62 g/ha [10, 15]
30%: pest or weed control at 31 g/ha [10, 14] | pest or weed control at 125 g/ha [11, 16]
50%: pest or weed control at 125 g/ha ([6]; 125 g ai/ha) | pest or weed control at 16 g/ha [12, 18]
10%: pest or weed control at 31 g/ha ([6]; 31 g ai/ha)
95%: pest or weed control at 31 g/ha ([4]; 31 g ai/ha) | pest or weed control at 62 g/ha ([4]; 62 g ai/ha) | pest or weed control at 125 g/ha ([4]; 125 g ai/ha) | pest or weed control at 250 g/ha ([4]; 250 g ai/ha) | pest or weed control at 125 g/ha ([7]; 125 g ai/ha) | pest or weed control at 125 g/ha [8, 16] | pest or weed control at 62 g/ha [9, 15] | pest or weed control at 250 g/ha [13, 17]
100%: pest or weed control at 31 g/ha ([1]; 31 g ai/ha) | pest or weed control at 62 g/ha ([1]; 62 g ai/ha) | pest or weed control at 125 g/ha ([1]; 125 g ai/ha) | pest or weed control at 250 g/ha ([1]; 250 g ai/ha) | pest or weed control at 62 g/ha ([2]; 62 g ai/ha) | pest or weed control at 125 g/ha ([2]; 125 g ai/ha) | pest or weed control at 250 g/ha ([2]; 250 g ai/ha) | pest or weed control at 31 g/ha ([3]; 31 g ai/ha) | pest or weed control at 62 g/ha ([3]; 62 g ai/ha) | pest or weed control at 125 g/ha ([3]; 125 g ai/ha) | pest or weed control at 250 g/ha ([3]; 250 g ai/ha) | pest or weed control at 62 g/ha ([5]; 62 g ai/ha) | pest or weed control at 125 g/ha ([5]; 125 g ai/ha) | pest or weed control at 250 g/ha ([5]; 250 g ai/ha) | pest or weed control at 250 g/ha [8, 17] | pest or weed control at 125 g/ha [9, 16] | pest or weed control at 250 g/ha [9, 17] | pest or weed control at 250 g/ha [12, 17]
